In patent publication US20240277698A1, “METHODS OF USING ALDOSTERONE SYNTHASE INHIBITORS” (CINCOR PHARMA, INC., priority 2021, published 2024):

Molecular target: T1, aldosterone synthase (Homo sapiens, UniProt P19099)
T1 construct: synthesized in the adrenal cortex by aldosterone synthase; endogenous in cells; host or cells: adrenal cortex of healthy human subjects (in vivo, oral dosing)
T1 sequence (P19099 25-503): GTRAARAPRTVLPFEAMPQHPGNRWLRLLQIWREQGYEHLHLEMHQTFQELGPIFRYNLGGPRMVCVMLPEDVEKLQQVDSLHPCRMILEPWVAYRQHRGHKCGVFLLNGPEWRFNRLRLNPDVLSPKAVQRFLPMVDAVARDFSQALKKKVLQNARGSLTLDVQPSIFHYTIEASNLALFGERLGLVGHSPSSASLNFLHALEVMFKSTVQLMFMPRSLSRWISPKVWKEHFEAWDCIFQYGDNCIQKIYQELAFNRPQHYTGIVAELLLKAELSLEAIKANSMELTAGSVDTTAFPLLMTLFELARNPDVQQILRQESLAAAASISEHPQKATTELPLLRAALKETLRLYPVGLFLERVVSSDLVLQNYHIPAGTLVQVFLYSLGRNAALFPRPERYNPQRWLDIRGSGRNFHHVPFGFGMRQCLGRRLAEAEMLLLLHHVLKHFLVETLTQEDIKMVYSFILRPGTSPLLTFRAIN
Experiment: MAD study: plasma aldosterone and precursors (18-hydroxycorticosterone, corticosterone, 11-deoxycorticosterone)
Type: in vivo
Settings: mean; for Plasma 11-deoxycorticosterone, Day −1 predose / Plasma 18-hydroxycorticosterone, Day −1 predose / Plasma aldosterone, Day −1 predose / Plasma corticosterone, Day −1 predose: baseline
Text: For each subject, the study consisted of: • A screening period of up to 28 days; • A 5-day inpatient run-in period during which subjects adhered to a controlled, standardized diet and underwent baseline PD assessments; • A 15-day inpatient treatment period, during which subjects received (R)-compound 1 or placebo once daily for 10 days while adhering to a controlled, standardized diet, followed by PK and PD sampling over an additional 5 days; and • A follow-up visit 3 days (1 day) after discharge from the clinical unit. • A cortisol stimulation test (Cohorts 1 and 2 only) and standing aldosterone assessment (all cohorts) were performed on Days 1 and 10. Serial blood samples for PK and PD were obtained prior to and at specified time points over 24 hours after dosing on Day 1 as well as prior to and at specified time points over 120 hours after dosing on Day 10. In addition, blood samples for PK were collected prior to dosing on Days 8 and 9. Urine for PK and PD measurements was collected over 24 hours starting just prior to dosing on Day 1 as well as over 120 hours starting just prior to dosing on Day 10. […]

SMILES: CCC(=O)N[C@@H]1CCCc2c(-c3ccc4c(c3)CCC(=O)N4C)cncc21 [(R)-Compound 1, (R)—N-(4-(1-methyl-2-oxo-1,2,3,4-tetrahydroquinolin-6-yl)-5,6,7,8-tetrahydroisoquinolin-8-yl)propionamide]
- Plasma 11-deoxycorticosterone, Day −1 predose (0.5 mg QD, normal salt diet): 52.625 pg/mL
- Plasma 18-hydroxycorticosterone, Day −1 predose (0.5 mg QD, normal salt diet): 955.5 pg/mL
- Plasma aldosterone, Day −1 predose (0.5 mg QD, normal salt diet): 131.588 pg/mL
- Plasma corticosterone, Day −1 predose (0.5 mg QD, normal salt diet): 4302.5 pg/mL
- Plasma 11-deoxycorticosterone, Day 1, 12 hours postdose (0.5 mg QD, normal salt diet): 35.900 pg/mL
- Plasma 11-deoxycorticosterone, Day 1, predose (0.5 mg QD, normal salt diet): 50.938 pg/mL
- Plasma 11-deoxycorticosterone, Day 2, predose (0.5 mg QD, normal salt diet): 72.950 pg/mL
- Plasma 11-deoxycorticosterone, Day 10, 12 hours postdose (0.5 mg QD, normal salt diet): 70.813 pg/mL
- Plasma 11-deoxycorticosterone, Day 10, 24 hours postdose (0.5 mg QD, normal salt diet): 115.663 pg/mL
- Plasma 11-deoxycorticosterone, Day 10, predose (0.5 mg QD, normal salt diet): 112.375 pg/mL
- Plasma 11-deoxycorticosterone, Percent change from Day −1 to Day 10, predose (0.5 mg QD, normal salt diet): 161.115%
- Plasma 18-hydroxycorticosterone, Day 1, 12 hours postdose (0.5 mg QD, normal salt diet): 310.1 pg/mL
- Plasma 18-hydroxycorticosterone, Day 1, predose (0.5 mg QD, normal salt diet): 943.1 pg/mL
- Plasma 18-hydroxycorticosterone, Day 2, predose (0.5 mg QD, normal salt diet): 819.6 pg/mL
- Plasma 18-hydroxycorticosterone, Day 10, 12 hours postdose (0.5 mg QD, normal salt diet): 326.5 pg/mL
- Plasma 18-hydroxycorticosterone, Day 10, 24 hours postdose (0.5 mg QD, normal salt diet): 1016.4 pg/mL
- Plasma 18-hydroxycorticosterone, Day 10, predose (0.5 mg QD, normal salt diet): 983.1 pg/mL
- Plasma 18-hydroxycorticosterone, Percent change from Day −1 to Day 10 (0.5 mg QD, normal salt diet): 5.2%
- Plasma aldosterone, Day 1, 12 hours postdose (0.5 mg QD, normal salt diet): 56.250 pg/mL
- Plasma aldosterone, Day 1, predose (0.5 mg QD, normal salt diet): 133.013 pg/mL
- Plasma aldosterone, Day 2, predose (0.5 mg QD, normal salt diet): 80.100 pg/mL
- Plasma aldosterone, Day 10, 12 hours postdose (0.5 mg QD, normal salt diet): 83.625 pg/mL
- Plasma aldosterone, Day 10, 24 hours postdose (0.5 mg QD, normal salt diet): 143.338 pg/mL
- Plasma aldosterone, Day 10, predose (0.5 mg QD, normal salt diet): 152.875 pg/mL
- Plasma aldosterone, Percent change from Day −1 to Day 10, predose (0.5 mg QD, normal salt diet): 28.841%
- Plasma corticosterone, Day 1, 12 hours postdose (0.5 mg QD, normal salt diet): 695.6 pg/mL
- Plasma corticosterone, Day 1, predose (0.5 mg QD, normal salt diet): 3170.0 pg/mL
- Plasma corticosterone, Day 2, predose (0.5 mg QD, normal salt diet): 4490.0 pg/mL
- Plasma corticosterone, Day 10, 12 hours postdose (0.5 mg QD, normal salt diet): 1211.4 pg/mL
- Plasma corticosterone, Day 10, 24 hours postdose (0.5 mg QD, normal salt diet): 5923.8 pg/mL
- Plasma corticosterone, Day 10, predose (0.5 mg QD, normal salt diet): 4187.5 pg/mL
- Plasma corticosterone, Percent change from Day −1 to Day 10, predose (0.5 mg QD, normal salt diet): 73.0%
- Plasma 11-deoxycorticosterone, Day −1 predose (1.5 mg QD, normal salt diet): 43.489 pg/mL
- Plasma 18-hydroxycorticosterone, Day −1 predose (1.5 mg QD, normal salt diet): 1027.4 pg/mL
- Plasma aldosterone, Day −1 predose (1.5 mg QD, normal salt diet): 143.100 pg/mL
- Plasma corticosterone, Day −1 predose (1.5 mg QD, normal salt diet): 3748.3 pg/mL
- Plasma 11-deoxycorticosterone, Day 1, 12 hours postdose (1.5 mg QD, normal salt diet): 19.656 pg/mL
- Plasma 11-deoxycorticosterone, Day 1, predose (1.5 mg QD, normal salt diet): 44.711 pg/mL
- Plasma 11-deoxycorticosterone, Day 2, predose (1.5 mg QD, normal salt diet): 53.344 pg/mL
- Plasma 11-deoxycorticosterone, Day 10, 12 hours postdose (1.5 mg QD, normal salt diet): 46.733 pg/mL
- Plasma 11-deoxycorticosterone, Day 10, 24 hours postdose (1.5 mg QD, normal salt diet): 84.767 pg/mL
- Plasma 11-deoxycorticosterone, Day 10, predose (1.5 mg QD, normal salt diet): 73.322 pg/mL
- Plasma 11-deoxycorticosterone, Percent change from Day −1 to Day 10, predose (1.5 mg QD, normal salt diet): 104.945%
- Plasma 18-hydroxycorticosterone, Day 1, 12 hours postdose (1.5 mg QD, normal salt diet): 225.6 pg/mL
- Plasma 18-hydroxycorticosterone, Day 1, predose (1.5 mg QD, normal salt diet): 991.7 pg/mL
- Plasma 18-hydroxycorticosterone, Day 2, predose (1.5 mg QD, normal salt diet): 829.3 pg/mL
- Plasma 18-hydroxycorticosterone, Day 10, 12 hours postdose (1.5 mg QD, normal salt diet): 318.4 pg/mL
- Plasma 18-hydroxycorticosterone, Day 10, 24 hours postdose (1.5 mg QD, normal salt diet): 1000.1 pg/mL
- Plasma 18-hydroxycorticosterone, Day 10, predose (1.5 mg QD, normal salt diet): 1047.9 pg/mL
- Plasma 18-hydroxycorticosterone, Percent change from Day −1 to Day 10 (1.5 mg QD, normal salt diet): 6.1%
- Plasma aldosterone, Day 1, 12 hours postdose (1.5 mg QD, normal salt diet): 27.111 pg/mL
- Plasma aldosterone, Day 1, predose (1.5 mg QD, normal salt diet): 110.567 pg/mL
- Plasma aldosterone, Day 2, predose (1.5 mg QD, normal salt diet): 52.933 pg/mL
- Plasma aldosterone, Day 10, 12 hours postdose (1.5 mg QD, normal salt diet): 41.300 pg/mL
- Plasma aldosterone, Day 10, 24 hours postdose (1.5 mg QD, normal salt diet): 92.533 pg/mL
- Plasma aldosterone, Day 10, predose (1.5 mg QD, normal salt diet): 82.144 pg/mL
- Plasma aldosterone, Percent change from Day −1 to Day 10, predose (1.5 mg QD, normal salt diet): −37.405%
- Plasma corticosterone, Day 1, 12 hours postdose (1.5 mg QD, normal salt diet): 635.2 pg/mL
- Plasma corticosterone, Day 1, predose (1.5 mg QD, normal salt diet): 3988.3 pg/mL
- Plasma corticosterone, Day 2, predose (1.5 mg QD, normal salt diet): 4413.3 pg/mL
- Plasma corticosterone, Day 10, 12 hours postdose (1.5 mg QD, normal salt diet): 1417.0 pg/mL
- Plasma corticosterone, Day 10, 24 hours postdose (1.5 mg QD, normal salt diet): 6065.6 pg/mL
- Plasma corticosterone, Day 10, predose (1.5 mg QD, normal salt diet): 5677.8 pg/mL
- Plasma corticosterone, Percent change from Day −1 to Day 10, predose (1.5 mg QD, normal salt diet): 115.1%
- Plasma 11-deoxycorticosterone, Day −1 predose (2.5 mg QD, low salt diet): 72.688 pg/mL
- Plasma 18-hydroxycorticosterone, Day −1 predose (2.5 mg QD, low salt diet): 1269.6 pg/mL
- Plasma aldosterone, Day −1 predose (2.5 mg QD, low salt diet): 272.125 pg/mL
- Plasma corticosterone, Day −1 predose (2.5 mg QD, low salt diet): 6383.8 pg/mL
- Plasma 11-deoxycorticosterone, Day 1, 12 hours postdose (2.5 mg QD, low salt diet): 133.300 pg/mL
- Plasma 11-deoxycorticosterone, Day 1, predose (2.5 mg QD, low salt diet): 83.825 pg/mL
- Plasma 11-deoxycorticosterone, Day 10, 12 hours postdose (2.5 mg QD, low salt diet): 204.250 pg/mL
- Plasma 11-deoxycorticosterone, Day 10, 24 hours postdose (2.5 mg QD, low salt diet): 217.975 pg/mL
- Plasma 11-deoxycorticosterone, Day 10, predose (2.5 mg QD, low salt diet): 164.725 pg/mL
- Plasma 11-deoxycorticosterone, Percent change from Day −1 to Day 10, predose (2.5 mg QD, low salt diet): 412.560%
- Plasma 18-hydroxycorticosterone, Day 1, 12 hours postdose (2.5 mg QD, low salt diet): 230.4 pg/mL
- Plasma 18-hydroxycorticosterone, Day 1, predose (2.5 mg QD, low salt diet): 839.6 pg/mL
- Plasma 18-hydroxycorticosterone, Day 10, 12 hours postdose (2.5 mg QD, low salt diet): 339.1 pg/mL
